The results in this text go back to US11046651B2, “Piperazine substituted azapine derivatives and uses thereof” (Alairion, Inc., priority 2019, dated 2021).

Test [1] addresses H1 (Homo sapiens (Human), UniProt P35367). Briefly: H1 binding assay ([3H]pyrilamine, HEK293 stable cell line membranes). The method, then:
Example 25. H1 and 5-HT2A Binding Assay Protocol
(§1) The testing compounds were diluted with DMSO, starting at 2 mM, with 8-points and 5-fold serial dilutions. Ketanserin and Pyrilamine were diluted with DMSO, starting at 0.2 mM, with 8-points and 5-fold serial dilution.
(§2) 1 μl of a compounds of the present disclosure and either reference compound (Table C) were transferred to assay plates. 1 μl of 0.2 mM Ketanserin or Pyrilamine was transferred to an assay plate according to the plate map for nonspecific binding (Low control: LC). 1 μl of DMSO was transferred to an assay plate according to plate map for total binding (High control: HC).
(§3) 100 μlof membrane stocks were dispensed into the plates, following the plate map. 100 of radio ligand was added. The plates were sealed and shaken at 300 rpm at room temperature for 1 hour. The Unifilter-96 GF/C filter plates were soaked with 50 of 0.3% PEI per well for at least 0.5 hour at room temperature.
(§4) When the binding assays were complete, the reaction mixture was filtered through GF/C plates using Perkin Elmer Filtermate Harvester, and then each plate was washed 4 times with cold wash buffer. The filter plates were dried for 1 hour at 50 degrees. After drying, the bottom of the filter plate wells were sealed using Perkin Elmer Unifilter-96 backing seal tape. 50 μl of Perkin Elmer Microscint 20 cocktail was added. The top of the filter plates were sealed with Perkin Elmer TopSeal-A sealing film.
(§5) ^3H trapped on filters were counted using Perkin Elmer MicroBeta2 Reader. Inhibition constants were calculated using the following equation:
(§6) [formula] The data was analyzed using Prism 5. The model used was “log(inhibitor) vs. response—Variable slope” to fit the data and calculate IC50. The IC50 was then converted to Ki using following equation: Ki=IC50/(1+L/Kd). L is the radioligand concentration in the reaction system; Kd is the affinity of radioligand to the receptor.

Test [2] has as its target 5-HT2A (Homo sapiens (Human), UniProt P28223). Kind of test: 5-HT2A binding assay ([3H]-Ketanserin, HEK293 stable cell line membranes). The procedure: H1 and 5-HT2A Binding Assay Protocol
as §1, §2, §3, §4, §5, §6

Chain of 5-HT2A (P28223 whole entry, species assumed): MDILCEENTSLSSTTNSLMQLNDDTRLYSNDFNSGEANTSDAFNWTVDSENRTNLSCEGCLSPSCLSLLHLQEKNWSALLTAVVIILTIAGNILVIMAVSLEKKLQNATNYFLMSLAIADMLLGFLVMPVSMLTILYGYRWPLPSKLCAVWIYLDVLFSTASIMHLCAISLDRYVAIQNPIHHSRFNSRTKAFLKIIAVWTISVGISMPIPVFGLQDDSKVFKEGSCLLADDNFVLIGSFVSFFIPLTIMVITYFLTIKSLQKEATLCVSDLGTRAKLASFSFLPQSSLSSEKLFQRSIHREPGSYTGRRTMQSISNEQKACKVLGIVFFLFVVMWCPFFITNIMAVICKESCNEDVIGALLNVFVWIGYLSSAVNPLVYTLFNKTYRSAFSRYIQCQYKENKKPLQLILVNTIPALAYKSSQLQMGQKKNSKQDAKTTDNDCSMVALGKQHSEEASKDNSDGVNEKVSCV
Chain of H1 (P35367 whole entry): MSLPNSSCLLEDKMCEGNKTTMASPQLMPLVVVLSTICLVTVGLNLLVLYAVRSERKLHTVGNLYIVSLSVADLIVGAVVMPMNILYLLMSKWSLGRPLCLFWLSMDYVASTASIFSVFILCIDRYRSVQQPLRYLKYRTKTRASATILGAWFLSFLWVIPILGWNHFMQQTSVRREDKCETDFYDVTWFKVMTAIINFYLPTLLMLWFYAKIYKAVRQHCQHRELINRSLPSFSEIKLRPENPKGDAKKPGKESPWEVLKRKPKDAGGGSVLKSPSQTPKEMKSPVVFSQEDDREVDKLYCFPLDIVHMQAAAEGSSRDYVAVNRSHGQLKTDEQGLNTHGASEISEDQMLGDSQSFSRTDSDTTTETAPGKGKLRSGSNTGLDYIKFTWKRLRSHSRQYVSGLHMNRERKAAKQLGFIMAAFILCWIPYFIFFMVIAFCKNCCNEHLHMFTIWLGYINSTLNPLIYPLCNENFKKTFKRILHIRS

One may read the Ki as a measure of affinity in units of concentration, obtained from inhibition or displacement. The low end stands for a stronger hold on the target, the high end for a looser hold on the target. Regarding `CC(CN1CCN(C2=Nc3ccccc3Cc3ccccc32)CC1)C(=O)O` (stereo not drawn) [A-1, 3-(4-(11H-dibenzo[b,e]azepin-6-yl)piperazin-1-yl)-2-methylpropanoic acid, reference compound], the Ki in test [1] (numeric values) worked out at 104 nM; in test [2] (numeric values) it was 1380 nM.

Regarding `CC(C)c1ccc2c(c1)Oc1cc(Cl)ccc1N=C2N1CCN(CC(C)(C)C(=O)O)CC1` [Compound No. 2, 3-(4-(7-chloro-3-isopropyldibenzo[b,f][1,4]oxazepin-11-yl)piperazin-1-yl)-2,2-dimethylpropanoic acid], the inhibition constant Ki in test [1] (Table E, class symbols) lay in the range of 25 to 50 nM; in test [2] (Table F, class symbols), 1 to 25 nM.

Turning to `CCc1ccc2c(c1)Oc1cc(Cl)ccc1N=C2N1CCN(CC(C)(C)C(=O)O)CC1` [Compound No. 3, 3-(4-(7-chloro-3-ethyldibenzo[b,f][1,4]oxazepin-11-yl)piperazin-1-yl)-2,2-dimethylpropanoic acid], the inhibition constant (Ki) in test [1] (Table E, class symbols) lay within 25 to 50 nM; in test [2] (Table F, class symbols), 1 to 25 nM.

As for `CSc1ccc2c(c1)Oc1cc(Cl)ccc1N=C2N1CCN(CC(C)(C)C(=O)O)CC1` [Compound No. 4, 3-(4-(7-chloro-3-(methylthio)dibenzo[b,f][1,4]oxazepin-11-yl)piperazin-1-yl)-2,2-dimethylpropanoic acid], the inhibitory constant (Ki) in test [1] (Table E, class symbols) was 1 to 25 nM; in test [2] (Table F, class symbols), 1 to 25 nM.

Turning to `CCCc1ccc2c(c1)Oc1cc(Cl)ccc1N=C2N1CCN(CC(C)(C)C(=O)O)CC1` [Compound No. 5, 3-(4-(7-chloro-3-propyldibenzo[b,f][1,4]oxazepin-11-yl)piperazin-1-yl)-2,2-dimethylpropanoic acid], the inhibition constant Ki is 25 to 50 nM in test [1] (Table E, class symbols) and 1 to 25 nM in test [2] (Table F, class symbols).

`Cc1ccc2c(c1)Oc1cc(C)ccc1C(N1CCN(CC3(C(=O)O)CC3)CC1)=N2` [Compound No. 9, 1-((4-(3,7-dimethyldibenzo[b,f][1,4]oxazepin-11-yl)piperazin-1-yl)methyl)cyclopropane-1-carboxylic acid]: the Ki in test [1] (Table E, class symbols) is above 50 nM; in test [2] (Table F, class symbols), 1 to 25 nM.

In the case of `O=C(O)C1(CN2CCN(C3=Nc4ccc(F)cc4Oc4cc(F)ccc43)CC2)CC1` [Compound No. 10, 1-((4-(3,7-difluorodibenzo[b,f][1,4]oxazepin-11-yl)piperazin-1-yl)methyl)cyclopropane-1-carboxylic acid], the Ki in test [1] (Table E, class symbols) lay in the range of 1 to 25 nM; in test [2] (Table F, class symbols), 1 to 25 nM.

Regarding `CC(C)(CN1CCN(C2=Nc3ccc(F)cc3Oc3cc(F)ccc32)CC1)C(=O)O` [Compound No. 11, 3-(4-(3,7-difluorodibenzo[b,f][1,4]oxazepin-11-yl)piperazin-1-yl)-2,2-dimethylpropanoic acid], the inhibitory constant (Ki) in test [1] (Table E, class symbols) was above 50 nM; in test [2] (Table F, class symbols), 1 to 25 nM.

With `O=C(O)C1(CN2CCN(C3=Nc4ccccc4Cc4ccccc43)CC2)CC1` [Compound No. 12, 1-((4-(11H-dibenzo[b,e]azepin-6-yl)piperazin-1-yl)methyl)cyclopropane-1-carboxylic acid], the inhibitory constant (Ki) in test [1] (Table E, class symbols) was 1 to 25 nM; in test [2] (Table F, class symbols), above 50 nM.

Regarding `Cc1ccc2c(c1)Oc1cc(Cl)ccc1N=C2N1CCN(CC2(C(=O)O)CC2)CC1` [Compound No. 13, 1-((4-(7-chloro-3-methyldibenzo[b,f][1,4]oxazepin-11-yl)piperazin-1-yl)methyl)cyclopropane-1-carboxylic acid], the inhibitory constant (Ki) in test [1] (Table E, class symbols) is 25 to 50 nM; in test [2] (Table F, class symbols), 1 to 25 nM.

Turning to `CCc1ccc2c(c1)Oc1cc(C)ccc1N=C2N1CCN(CC2(C(=O)O)CC2)CC1` [Compound No. 14, 1-((4-(3-ethyl-7-methyldibenzo[b,f][1,4]oxazepin-11-yl)piperazin-1-yl)methyl)cyclopropane-1-carboxylic acid], the inhibition constant Ki in test [1] (Table E, class symbols) is above 50 nM; in test [2] (Table F, class symbols), 1 to 25 nM.

Regarding `Cc1ccc2c(c1)Oc1cc(C(F)F)ccc1N=C2N1CCN(CC(C)(C)C(=O)O)CC1` [Compound No. 16, 3-(4-(7-(difluoromethyl)-3-methyldibenzo[b,f][1,4]oxazepin-11-yl)piperazin-1-yl)-2,2-dimethylpropanoic acid], the Ki in test [1] (Table E, class symbols) was above 50 nM; in test [2] (Table F, class symbols), above 50 nM.
